The source of these data is PMC9329436, “Optimization of the 4-anilinoquin(az)oline scaffold as epidermal growth factor receptor (EGFR) inhibitors for chordoma utilizing a toxicology profiling assay platform” (Scientific Reports, 2022).

Common to all, as to type: biochemical
Experiment [1] addresses T1, 320 wild-type protein kinases (Homo sapiens, UniProt P54760).
T1 sequence (P54760 16-987): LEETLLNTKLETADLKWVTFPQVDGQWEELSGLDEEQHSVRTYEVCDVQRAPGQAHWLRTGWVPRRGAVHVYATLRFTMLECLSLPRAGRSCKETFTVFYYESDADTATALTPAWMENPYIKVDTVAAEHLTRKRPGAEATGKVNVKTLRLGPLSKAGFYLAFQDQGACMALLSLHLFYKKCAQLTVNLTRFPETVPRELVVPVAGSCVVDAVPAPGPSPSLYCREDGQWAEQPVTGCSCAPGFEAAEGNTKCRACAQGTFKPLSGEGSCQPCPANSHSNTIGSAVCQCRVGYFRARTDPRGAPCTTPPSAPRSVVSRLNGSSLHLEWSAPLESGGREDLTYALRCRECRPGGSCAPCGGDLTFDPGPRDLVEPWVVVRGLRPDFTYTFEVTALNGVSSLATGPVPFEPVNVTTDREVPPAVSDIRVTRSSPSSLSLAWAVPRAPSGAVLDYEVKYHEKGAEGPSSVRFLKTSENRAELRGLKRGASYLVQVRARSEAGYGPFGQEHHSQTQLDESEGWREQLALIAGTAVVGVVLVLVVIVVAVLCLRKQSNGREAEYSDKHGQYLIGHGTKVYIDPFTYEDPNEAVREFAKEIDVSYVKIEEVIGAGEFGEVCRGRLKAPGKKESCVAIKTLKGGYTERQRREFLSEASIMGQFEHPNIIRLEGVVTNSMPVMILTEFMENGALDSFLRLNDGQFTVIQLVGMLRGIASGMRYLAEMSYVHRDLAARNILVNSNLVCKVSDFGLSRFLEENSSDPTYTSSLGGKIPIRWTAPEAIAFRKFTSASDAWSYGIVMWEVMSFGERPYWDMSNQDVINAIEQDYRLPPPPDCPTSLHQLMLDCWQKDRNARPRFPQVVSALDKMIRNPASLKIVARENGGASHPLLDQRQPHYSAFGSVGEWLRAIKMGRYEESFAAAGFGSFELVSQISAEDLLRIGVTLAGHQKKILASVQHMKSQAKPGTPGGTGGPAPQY
The conditions noted are these: singlicate. From the text: (§1) Table S4. Profiling of two compounds at two concentrations against 320 wild-type protein kinases; singlicate measurement; Residual activities (% of control).

In experiment [2] the target is 320 wild-type protein kinases (Homo sapiens, UniProt Q13464). To be noted: kinase ROCK1, singlicate.
Chain of 320 wild-type protein kinases (Homo sapiens, UniProt Q13464) (Q13464 whole entry): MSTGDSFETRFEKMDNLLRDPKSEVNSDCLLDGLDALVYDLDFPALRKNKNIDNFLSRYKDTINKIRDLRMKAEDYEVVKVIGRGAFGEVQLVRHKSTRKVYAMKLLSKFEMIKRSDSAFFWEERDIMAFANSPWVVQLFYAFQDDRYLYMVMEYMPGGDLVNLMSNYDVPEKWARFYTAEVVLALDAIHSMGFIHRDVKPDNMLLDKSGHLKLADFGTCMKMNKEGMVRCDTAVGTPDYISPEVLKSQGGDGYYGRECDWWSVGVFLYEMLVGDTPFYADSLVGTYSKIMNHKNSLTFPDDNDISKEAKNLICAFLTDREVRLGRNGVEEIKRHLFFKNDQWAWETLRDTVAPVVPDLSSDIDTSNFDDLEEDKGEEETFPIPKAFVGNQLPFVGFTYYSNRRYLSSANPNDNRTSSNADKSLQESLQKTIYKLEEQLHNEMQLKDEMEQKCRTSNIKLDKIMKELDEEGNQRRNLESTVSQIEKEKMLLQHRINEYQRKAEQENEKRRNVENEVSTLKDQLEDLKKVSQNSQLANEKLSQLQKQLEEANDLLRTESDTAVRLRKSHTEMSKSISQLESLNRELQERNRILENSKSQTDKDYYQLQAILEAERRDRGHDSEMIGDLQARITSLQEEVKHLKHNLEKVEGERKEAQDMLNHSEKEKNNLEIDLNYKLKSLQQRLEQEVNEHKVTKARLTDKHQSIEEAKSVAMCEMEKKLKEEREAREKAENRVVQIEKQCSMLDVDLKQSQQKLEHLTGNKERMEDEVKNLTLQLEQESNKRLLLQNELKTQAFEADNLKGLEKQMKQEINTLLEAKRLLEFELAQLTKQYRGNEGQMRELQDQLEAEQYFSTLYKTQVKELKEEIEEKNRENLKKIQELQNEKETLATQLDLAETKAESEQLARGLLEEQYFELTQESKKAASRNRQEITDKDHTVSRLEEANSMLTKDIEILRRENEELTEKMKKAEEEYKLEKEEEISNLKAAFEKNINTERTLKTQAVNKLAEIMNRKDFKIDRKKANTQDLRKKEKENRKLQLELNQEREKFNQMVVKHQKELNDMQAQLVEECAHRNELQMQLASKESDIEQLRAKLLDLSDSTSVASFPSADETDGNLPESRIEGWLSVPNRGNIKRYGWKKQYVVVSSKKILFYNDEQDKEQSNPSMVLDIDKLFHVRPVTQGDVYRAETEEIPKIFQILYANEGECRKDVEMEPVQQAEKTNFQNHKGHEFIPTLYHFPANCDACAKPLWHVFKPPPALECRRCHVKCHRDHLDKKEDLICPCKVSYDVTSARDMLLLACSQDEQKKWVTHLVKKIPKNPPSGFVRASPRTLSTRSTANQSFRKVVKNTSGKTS
Source text: as §1

The target in experiment [3] is 320 wild-type protein kinases (Homo sapiens, UniProt Q15759). The conditions noted are these: p38-beta, singlicate.
Chain of 320 wild-type protein kinases (Homo sapiens, UniProt Q15759) (Q15759 whole entry): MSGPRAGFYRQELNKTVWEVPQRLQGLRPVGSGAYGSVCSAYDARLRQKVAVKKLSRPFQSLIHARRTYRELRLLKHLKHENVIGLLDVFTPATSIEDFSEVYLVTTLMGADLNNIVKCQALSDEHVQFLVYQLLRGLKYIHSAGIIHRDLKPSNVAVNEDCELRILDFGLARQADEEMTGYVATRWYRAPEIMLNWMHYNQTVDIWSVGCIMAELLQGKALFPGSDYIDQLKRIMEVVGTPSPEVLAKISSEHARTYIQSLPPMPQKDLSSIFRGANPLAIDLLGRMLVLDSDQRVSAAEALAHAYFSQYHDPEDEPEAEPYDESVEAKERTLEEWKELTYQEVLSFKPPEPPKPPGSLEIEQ
Source text: as §1

The target of experiment [4] is 320 wild-type protein kinases (Homo sapiens, UniProt O00311). The conditions noted are these: singlicate.
Chain of 320 wild-type protein kinases (Homo sapiens, UniProt O00311) (O00311 whole entry): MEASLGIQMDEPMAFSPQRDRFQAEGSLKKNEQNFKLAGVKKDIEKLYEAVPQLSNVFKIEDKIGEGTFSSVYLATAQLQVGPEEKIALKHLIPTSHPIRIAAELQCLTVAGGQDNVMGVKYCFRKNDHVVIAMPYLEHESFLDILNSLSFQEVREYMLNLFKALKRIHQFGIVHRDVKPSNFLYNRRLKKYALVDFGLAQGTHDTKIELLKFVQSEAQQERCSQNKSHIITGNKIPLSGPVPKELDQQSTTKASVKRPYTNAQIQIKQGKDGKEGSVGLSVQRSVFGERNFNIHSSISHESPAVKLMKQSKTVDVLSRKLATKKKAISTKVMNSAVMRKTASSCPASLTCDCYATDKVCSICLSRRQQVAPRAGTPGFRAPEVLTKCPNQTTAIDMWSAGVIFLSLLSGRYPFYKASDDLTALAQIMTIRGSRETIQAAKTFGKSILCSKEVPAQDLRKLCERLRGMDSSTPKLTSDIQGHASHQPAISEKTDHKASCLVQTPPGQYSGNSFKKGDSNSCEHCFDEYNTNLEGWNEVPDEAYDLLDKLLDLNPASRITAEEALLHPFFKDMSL
Source text: as §1

The target in experiment [5] is 320 wild-type protein kinases (Homo sapiens, UniProt P43250). To be noted: singlicate.
Chain of 320 wild-type protein kinases (Homo sapiens, UniProt P43250) (P43250 whole entry): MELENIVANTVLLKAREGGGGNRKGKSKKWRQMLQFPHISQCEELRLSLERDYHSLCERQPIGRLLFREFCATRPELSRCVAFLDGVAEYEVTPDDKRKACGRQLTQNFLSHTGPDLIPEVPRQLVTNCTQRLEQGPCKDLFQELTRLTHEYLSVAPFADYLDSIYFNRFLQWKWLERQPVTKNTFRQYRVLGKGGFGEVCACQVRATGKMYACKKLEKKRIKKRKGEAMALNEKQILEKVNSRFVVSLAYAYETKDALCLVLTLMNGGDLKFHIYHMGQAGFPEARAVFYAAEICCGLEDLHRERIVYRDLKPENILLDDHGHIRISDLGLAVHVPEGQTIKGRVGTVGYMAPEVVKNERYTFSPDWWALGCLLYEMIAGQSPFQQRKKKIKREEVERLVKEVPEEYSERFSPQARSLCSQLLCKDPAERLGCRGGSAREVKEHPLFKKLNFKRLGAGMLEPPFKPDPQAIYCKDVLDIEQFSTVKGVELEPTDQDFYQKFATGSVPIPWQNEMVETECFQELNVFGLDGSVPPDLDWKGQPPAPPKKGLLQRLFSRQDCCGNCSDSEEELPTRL
Source text: as §1

Experiment [6] concerns the target T2, 320 wild-type protein kinases (Homo sapiens, UniProt P41743).
T2 sequence (P41743 1-596): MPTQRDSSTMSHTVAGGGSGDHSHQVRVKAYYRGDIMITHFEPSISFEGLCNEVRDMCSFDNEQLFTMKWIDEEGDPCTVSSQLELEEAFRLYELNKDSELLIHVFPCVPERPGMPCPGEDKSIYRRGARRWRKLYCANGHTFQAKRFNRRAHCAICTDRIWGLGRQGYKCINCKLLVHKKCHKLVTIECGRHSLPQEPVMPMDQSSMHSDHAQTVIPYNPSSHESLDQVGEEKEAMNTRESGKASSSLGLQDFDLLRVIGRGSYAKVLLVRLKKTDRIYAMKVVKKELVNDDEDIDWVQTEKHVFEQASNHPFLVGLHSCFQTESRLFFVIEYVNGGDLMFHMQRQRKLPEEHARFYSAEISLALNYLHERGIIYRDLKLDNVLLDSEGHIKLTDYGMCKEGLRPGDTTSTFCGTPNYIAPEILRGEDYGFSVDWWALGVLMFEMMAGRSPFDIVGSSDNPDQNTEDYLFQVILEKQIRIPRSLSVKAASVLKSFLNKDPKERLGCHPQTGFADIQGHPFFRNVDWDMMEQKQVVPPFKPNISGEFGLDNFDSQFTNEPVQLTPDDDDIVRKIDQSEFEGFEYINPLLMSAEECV
To be noted: PKC-iota, singlicate.
Source text: as §1

Experiment [7] concerns the target T3, 320 wild-type protein kinases (Homo sapiens, UniProt P42680).
T3 sequence (P42680 1-631): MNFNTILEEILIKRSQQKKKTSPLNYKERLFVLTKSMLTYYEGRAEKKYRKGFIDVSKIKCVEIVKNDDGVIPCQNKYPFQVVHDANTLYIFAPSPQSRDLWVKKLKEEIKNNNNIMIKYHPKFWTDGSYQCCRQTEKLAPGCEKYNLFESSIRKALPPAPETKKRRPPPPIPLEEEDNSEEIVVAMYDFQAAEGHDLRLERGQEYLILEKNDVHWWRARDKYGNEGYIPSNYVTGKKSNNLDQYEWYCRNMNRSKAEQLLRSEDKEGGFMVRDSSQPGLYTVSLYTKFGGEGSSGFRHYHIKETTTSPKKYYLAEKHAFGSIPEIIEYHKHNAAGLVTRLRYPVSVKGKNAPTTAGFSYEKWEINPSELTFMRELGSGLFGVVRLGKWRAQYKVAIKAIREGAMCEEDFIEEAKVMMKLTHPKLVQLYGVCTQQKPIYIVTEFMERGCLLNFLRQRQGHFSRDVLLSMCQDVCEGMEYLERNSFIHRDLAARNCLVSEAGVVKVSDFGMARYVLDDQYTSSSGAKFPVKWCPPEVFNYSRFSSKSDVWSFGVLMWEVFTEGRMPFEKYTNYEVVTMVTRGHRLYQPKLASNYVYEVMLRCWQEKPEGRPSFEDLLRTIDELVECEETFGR
The conditions noted are these: kinase TEC, singlicate.
Source text: as §1

Experiment [8] addresses 320 wild-type protein kinases (Homo sapiens, UniProt Q16620). The conditions noted are these: kinase TRK-B, singlicate.
Source text: as §1

In experiment [9] the target is 320 wild-type protein kinases (Homo sapiens, UniProt P07332). To be noted: FES, singlicate.
Chain of 320 wild-type protein kinases (Homo sapiens, UniProt P07332) (P07332 whole entry): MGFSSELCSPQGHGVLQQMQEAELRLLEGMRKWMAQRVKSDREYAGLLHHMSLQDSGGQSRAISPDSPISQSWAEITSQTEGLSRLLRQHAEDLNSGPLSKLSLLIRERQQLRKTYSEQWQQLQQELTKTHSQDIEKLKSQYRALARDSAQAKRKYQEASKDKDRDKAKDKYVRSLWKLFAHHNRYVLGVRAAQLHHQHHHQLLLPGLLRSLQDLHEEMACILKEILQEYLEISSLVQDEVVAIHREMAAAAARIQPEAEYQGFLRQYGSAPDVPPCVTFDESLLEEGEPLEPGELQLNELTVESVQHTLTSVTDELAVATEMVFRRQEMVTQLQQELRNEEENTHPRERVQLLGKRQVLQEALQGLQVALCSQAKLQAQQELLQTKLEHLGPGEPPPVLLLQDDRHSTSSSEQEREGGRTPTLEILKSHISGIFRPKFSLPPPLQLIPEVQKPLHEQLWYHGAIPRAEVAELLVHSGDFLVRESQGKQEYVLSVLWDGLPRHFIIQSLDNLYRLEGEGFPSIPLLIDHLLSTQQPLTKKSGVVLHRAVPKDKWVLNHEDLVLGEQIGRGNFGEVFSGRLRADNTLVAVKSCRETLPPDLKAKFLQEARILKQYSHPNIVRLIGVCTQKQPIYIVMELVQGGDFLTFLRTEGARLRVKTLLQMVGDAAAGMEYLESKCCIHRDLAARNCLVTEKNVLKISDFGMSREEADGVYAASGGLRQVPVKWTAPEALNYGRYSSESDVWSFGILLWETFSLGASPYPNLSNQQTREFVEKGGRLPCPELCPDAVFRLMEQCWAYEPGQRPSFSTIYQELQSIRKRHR
Source text: as §1

Like-named read-outs stand apart in the source and are kept apart here.

Chain of 320 wild-type protein kinases (Homo sapiens, UniProt Q16620) (Q16620 32-822): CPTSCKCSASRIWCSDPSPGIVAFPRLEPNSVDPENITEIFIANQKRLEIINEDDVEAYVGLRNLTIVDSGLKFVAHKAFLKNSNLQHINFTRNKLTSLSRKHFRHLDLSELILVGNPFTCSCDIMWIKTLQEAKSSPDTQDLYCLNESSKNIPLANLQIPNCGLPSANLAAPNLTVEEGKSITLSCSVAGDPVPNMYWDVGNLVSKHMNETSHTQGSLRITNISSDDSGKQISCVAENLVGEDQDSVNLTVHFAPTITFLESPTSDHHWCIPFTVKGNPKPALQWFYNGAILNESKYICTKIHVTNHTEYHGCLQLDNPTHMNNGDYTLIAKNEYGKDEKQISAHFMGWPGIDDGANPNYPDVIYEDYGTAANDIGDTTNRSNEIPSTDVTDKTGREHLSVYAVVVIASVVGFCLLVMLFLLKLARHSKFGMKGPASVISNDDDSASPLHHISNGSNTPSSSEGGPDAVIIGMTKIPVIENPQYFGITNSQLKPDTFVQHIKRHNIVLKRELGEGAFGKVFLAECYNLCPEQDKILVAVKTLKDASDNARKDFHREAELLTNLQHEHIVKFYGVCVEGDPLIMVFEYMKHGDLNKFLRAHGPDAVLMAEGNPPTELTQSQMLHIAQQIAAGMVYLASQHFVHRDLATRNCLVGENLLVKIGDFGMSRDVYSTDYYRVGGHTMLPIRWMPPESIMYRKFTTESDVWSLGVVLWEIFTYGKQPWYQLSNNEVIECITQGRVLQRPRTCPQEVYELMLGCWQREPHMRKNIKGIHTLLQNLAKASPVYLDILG

`C#Cc1cc(Nc2ncnc3cc(OC)c(OC)cc23)ccc1Cl` [Compound 45]: the Residual activity is given as 82 % of control in [1] (EPHB4, 1.0E-06 M); 101 % of control in [1] (EPHB4, 1.0E-07 M); 87 % of control in experiment [3] (1.0E-06 M); 90 % of control in experiment [3] (1.0E-07 M); 88 % of control in [4] (CDC7/DBF4, 1.0E-06 M); 107 % of control in experiment [4] (CDC7/DBF4, 1.0E-07 M). Besides, the Residual activity in [5] (GRK6, 1.0E-06 M) was 101 % of control; in experiment [5] (GRK6, 1.0E-07 M), 133 % of control; in experiment [6] (1.0E-06 M), 96 % of control; in [6] (1.0E-07 M), 139 % of control; in experiment [9] (1.0E-06 M), 97 % of control; in experiment [9] (1.0E-07 M) it was 107 % of control. Also, the results for the “Residual activity, ROCK1” value in [2] (assay conc. 1.0E-06 M) and in experiment [2] (assay conc. 1.0E-07 M) were 83 % of control and 98 % of control, respectively. The entries for the “Residual activity, TEC” value in experiment [7] (assay conc. 1.0E-06 M) and in [7] (assay conc. 1.0E-07 M) were 92 % of control and 108 % of control, respectively. Also, the “Residual activity, TRK-B” value is 97 % of control in experiment [8] (assay conc. 1.0E-06 M) and 98 % of control in experiment [8] (assay conc. 1.0E-07 M).
For `C#Cc1cc(Nc2ncnc3cc(I)ccc23)ccc1Cl` [Compound 41], the Residual activity is listed as 92 % of control in experiment [1] (EPHB4, 1.0E-06 M); 89 % of control in experiment [1] (EPHB4, 1.0E-07 M); 84 % of control in experiment [3] (1.0E-06 M); 82 % of control in experiment [3] (1.0E-07 M); 90 % of control in experiment [4] (CDC7/DBF4, 1.0E-06 M); 89 % of control in [4] (CDC7/DBF4, 1.0E-07 M). Further, the Residual activity in experiment [5] (GRK6, 1.0E-06 M) is given as 120 % of control; in experiment [5] (GRK6, 1.0E-07 M), 124 % of control; in [6] (1.0E-06 M), 104 % of control; in experiment [6] (1.0E-07 M) it was 119 % of control; in experiment [9] (1.0E-06 M), 93 % of control; in [9] (1.0E-07 M), 118 % of control. The “Residual activity, ROCK1” value in [2] (assay conc. 1.0E-06 M) is 91 % of control; in experiment [2] (assay conc. 1.0E-07 M), 84 % of control. The “Residual activity, TEC” value in experiment [7] (assay conc. 1.0E-06 M) is 90 % of control; in experiment [7] (assay conc. 1.0E-07 M), 96 % of control. For the same compound, the figures for the “Residual activity, TRK-B” value in experiment [8] (assay conc. 1.0E-06 M) and in [8] (assay conc. 1.0E-07 M) were 98 % of control and 107 % of control, respectively.
